Laboratory results as given in ChEMBL document CHEMBL2074334, “Altered hepatobiliary disposition of acetaminophen glucuronide in isolated perfused livers from multidrug resistance-associated protein 2-deficient TR(-) rats” (J Pharmacol Exp Ther, 2000).

Molecular target: ATP-binding cassette sub-family C member 2 (Rattus norvegicus, UniProt Q63120)
Assay: TP_TRANSPORTER: decrease in biliary excretion in isolated perfused liver from TR- rat
Format: functional

ATP-binding cassette sub-family C member 2, sequence (Q63120 whole entry, the tested form may be a part): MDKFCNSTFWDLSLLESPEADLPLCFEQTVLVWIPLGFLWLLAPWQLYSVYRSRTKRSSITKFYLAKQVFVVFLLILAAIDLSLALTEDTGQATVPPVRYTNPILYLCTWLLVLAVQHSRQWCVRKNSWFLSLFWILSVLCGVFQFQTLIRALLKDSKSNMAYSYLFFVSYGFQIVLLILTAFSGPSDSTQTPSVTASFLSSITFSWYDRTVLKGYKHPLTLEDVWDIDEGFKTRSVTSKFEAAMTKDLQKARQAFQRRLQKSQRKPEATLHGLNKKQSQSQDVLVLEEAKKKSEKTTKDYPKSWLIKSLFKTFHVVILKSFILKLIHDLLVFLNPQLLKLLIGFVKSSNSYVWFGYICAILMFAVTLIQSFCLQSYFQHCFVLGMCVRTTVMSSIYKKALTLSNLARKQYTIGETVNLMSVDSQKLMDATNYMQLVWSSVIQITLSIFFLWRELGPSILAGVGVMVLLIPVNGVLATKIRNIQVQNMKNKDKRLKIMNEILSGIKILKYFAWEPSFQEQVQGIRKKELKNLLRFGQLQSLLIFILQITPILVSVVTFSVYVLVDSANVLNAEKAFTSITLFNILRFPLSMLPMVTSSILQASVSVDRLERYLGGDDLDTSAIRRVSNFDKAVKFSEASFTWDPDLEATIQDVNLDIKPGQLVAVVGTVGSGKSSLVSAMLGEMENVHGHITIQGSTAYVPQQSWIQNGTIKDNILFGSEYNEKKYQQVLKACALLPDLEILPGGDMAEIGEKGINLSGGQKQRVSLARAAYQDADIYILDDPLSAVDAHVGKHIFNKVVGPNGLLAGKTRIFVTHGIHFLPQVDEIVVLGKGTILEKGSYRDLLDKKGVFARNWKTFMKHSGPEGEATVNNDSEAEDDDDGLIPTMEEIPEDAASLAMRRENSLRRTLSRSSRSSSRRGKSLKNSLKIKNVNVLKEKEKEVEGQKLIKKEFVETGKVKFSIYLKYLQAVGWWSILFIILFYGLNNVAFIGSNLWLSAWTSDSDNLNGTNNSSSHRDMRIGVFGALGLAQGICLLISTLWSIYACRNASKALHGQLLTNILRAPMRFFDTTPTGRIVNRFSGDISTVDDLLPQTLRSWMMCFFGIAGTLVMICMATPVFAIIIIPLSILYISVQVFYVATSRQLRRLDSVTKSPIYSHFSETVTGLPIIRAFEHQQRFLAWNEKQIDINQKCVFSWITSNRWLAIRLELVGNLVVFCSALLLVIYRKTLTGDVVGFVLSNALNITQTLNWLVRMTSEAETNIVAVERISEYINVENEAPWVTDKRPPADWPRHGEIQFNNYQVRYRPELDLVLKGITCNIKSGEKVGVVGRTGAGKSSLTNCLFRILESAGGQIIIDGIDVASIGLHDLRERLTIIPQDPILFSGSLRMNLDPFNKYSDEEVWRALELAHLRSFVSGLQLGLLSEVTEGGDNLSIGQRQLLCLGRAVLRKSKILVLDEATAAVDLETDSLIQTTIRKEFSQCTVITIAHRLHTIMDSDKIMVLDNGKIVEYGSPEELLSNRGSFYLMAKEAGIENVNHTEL

Activity | Compound
substrate [+] | CC(=O)Nc1ccccc1.O=S(=O)(O)O
substrate [+] | CC(=O)Nc1ccc(O[C@@H]2O[C@H](C(=O)O)[C@@H](O)[C@H](O)[C@H]2O)cc1 [ACETAMINOPHEN GLUCURONIDE]
